Reference: ChEMBL document CHEMBL3832551, “DailyMed|setid=dd39c559-5c5d-4d3b-9228-c44085e1699f | FELODIPINE - felodipine tablet, film coated, extended release|Aurobindo Pharma Limited”

Columns and labels:
Type in all cases: ADME, organism-based
Homo sapiens [1] = test: (§1) Evaluation of pharmacokinetic parameters for Felodipine following single oral administration of Felodipine immediate or extended-release tablets; parameters: dose 10 mg, dose 20 mg, route oral; conditions: in vivo, po, dosed compound id 10, dosed compound name FELODIPINE, regimen Single dose, tissue Plasma
[2] = as §1; parameters: dose 10 mg, dose 20 mg, route oral; conditions: human, in vivo; dosed compound id 10, dosed compound name FELODIPINE, regimen Single dose, route oral, tissue Plasma
Homo sapiens [3] = test: (§2) Evaluation of pharmacokinetic parameters for Felodipine following multiple oral administration of Felodipine immediate-release tablets; parameters: dose 10 mg, route oral; conditions: in vivo, dose 10 mg, dosed compound id 10, dosed compound name FELODIPINE, gender male and female, regimen Once daily, route oral, tissue Plasma
[4] = as §2; parameters: dose 10 mg, route oral; conditions: human, in vivo, 10 mg, dosed compound id 10, dosed compound name FELODIPINE, gender male and female, regimen Once daily, tissue Plasma

- Cmin ss (Homo sapiens [1]; dose 10 mg, gender young male and female): 2 nmol/L
- Cmin ss (Homo sapiens [1]; dose 20 mg, gender male and female): 7 nmol/L
- Cmax (Homo sapiens [1]; gender male and female): 23 nM
- Cmax (Homo sapiens [1]; gender young male and female): 7 nM
- Tmax [2]: 2.5 to 5 h
- bioavailability [2]: 5%
- Cmin ss (Homo sapiens [3]): 0.5 nmol/L
- Cmax [4]: 20 nM
Compound: CCOC(=O)C1=C(C)NC(C)=C(C(=O)OC)C1c1cccc(Cl)c1Cl (stereo not drawn) [FELODIPINE]
